How the values were obtained:
EntF+YbdZ = EntF+YbdZ (Escherichia coli, UniProt P11454); experiment: substrate activation assay; assay type: biochemical; conditions: co-purified with YbdZ; two values for two different preparations
EntF (EntF-H6) = EntF (EntF-H6) (Escherichia coli, UniProt P11454); experiment: substrate activation assay; assay type: biochemical; conditions: without YbdZ; two values for two different preparations
H6-CmnO = experiment: co-purification after co-expression
[1] = substrate: O=C(O)c1cccc(O)c1O; experiment: substrate activation assay; assay type: biochemical, Escherichia coli; conditions: without YbdZ

Sequence of EntF (EntF-H6) (P11454 whole entry): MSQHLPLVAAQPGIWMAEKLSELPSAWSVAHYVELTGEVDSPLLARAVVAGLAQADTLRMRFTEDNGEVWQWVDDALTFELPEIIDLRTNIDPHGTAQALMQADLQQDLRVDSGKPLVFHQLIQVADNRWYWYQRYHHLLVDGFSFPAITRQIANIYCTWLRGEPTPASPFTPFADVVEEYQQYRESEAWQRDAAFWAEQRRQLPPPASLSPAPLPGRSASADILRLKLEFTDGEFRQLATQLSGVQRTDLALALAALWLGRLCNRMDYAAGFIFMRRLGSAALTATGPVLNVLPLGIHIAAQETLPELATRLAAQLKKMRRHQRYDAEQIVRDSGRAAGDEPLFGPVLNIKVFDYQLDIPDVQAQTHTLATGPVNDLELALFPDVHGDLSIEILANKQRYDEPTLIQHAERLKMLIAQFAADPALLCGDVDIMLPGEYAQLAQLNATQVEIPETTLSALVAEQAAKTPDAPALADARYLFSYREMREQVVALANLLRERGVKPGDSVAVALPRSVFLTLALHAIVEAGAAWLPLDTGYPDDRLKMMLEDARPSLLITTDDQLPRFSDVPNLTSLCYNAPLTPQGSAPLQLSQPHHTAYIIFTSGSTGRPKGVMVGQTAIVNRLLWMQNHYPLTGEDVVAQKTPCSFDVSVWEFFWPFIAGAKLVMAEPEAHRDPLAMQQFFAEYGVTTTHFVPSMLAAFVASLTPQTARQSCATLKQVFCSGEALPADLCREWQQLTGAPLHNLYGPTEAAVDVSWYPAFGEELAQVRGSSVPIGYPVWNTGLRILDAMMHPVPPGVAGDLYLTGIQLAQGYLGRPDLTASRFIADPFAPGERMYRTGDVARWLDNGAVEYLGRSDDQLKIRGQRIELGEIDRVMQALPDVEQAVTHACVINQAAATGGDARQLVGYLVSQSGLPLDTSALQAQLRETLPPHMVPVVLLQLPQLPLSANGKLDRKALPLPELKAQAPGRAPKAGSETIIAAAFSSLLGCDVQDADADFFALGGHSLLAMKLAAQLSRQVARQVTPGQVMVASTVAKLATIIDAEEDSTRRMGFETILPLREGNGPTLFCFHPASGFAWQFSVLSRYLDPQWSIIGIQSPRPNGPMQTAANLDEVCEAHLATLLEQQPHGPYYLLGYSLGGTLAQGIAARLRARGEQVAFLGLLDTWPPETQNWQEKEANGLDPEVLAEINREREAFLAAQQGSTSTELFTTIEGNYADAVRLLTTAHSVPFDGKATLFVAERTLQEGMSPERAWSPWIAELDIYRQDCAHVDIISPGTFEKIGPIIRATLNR
Sequence of EntF+YbdZ (P11454 whole entry): as above
Sequence of EntF+YbdZ (P18393 2-72 partner limits assumed): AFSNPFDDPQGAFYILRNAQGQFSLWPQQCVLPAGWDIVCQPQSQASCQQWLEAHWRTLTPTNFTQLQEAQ

N[C@@H](CO)C(=O)O [L-Ser]
Km ^a (EntF+YbdZ): 655.9 ± 53.0, 240.1 ± 46.7 μM
Km ^a (EntF (EntF-H6)): 7162.1 ± 413.5, 4589.5 ± 313.0 μM

CmnN (natural protein)
stoichiometry N (mol CmnN per mol H6-CmnO) (H6-CmnO): 0.42

B1: EntE (H6-EntE) (Escherichia coli K-12) (protein)
chain: MSIPFTRWPEEFARRYREKGYWQDLPLTDILTRHAASDSIAVIDGERQLSYRELNQAADNLACSLRRQGIKPGETALVQLGNVAELYITFFALLKLGVAPVLALFSHQRSELNAYASQIEPALLIADRQHALFSGDDFLNTFVTEHSSIRVVQLLNDSGEHNLQDAINHPAEDFTATPSPADEVAYFQLSGGTTGTPKLIPRTHNDYYYSVRRSVEICQFTQQTRYLCAIPAAHNYAMSSPGSLGVFLAGGTVVLAADPSATLCFPLIEKHQVNVTALVPPAVSLWLQALIEGESRAQLASLKLLQVGGARLSATLAARIPAEIGCQLQQVFGMAEGLVNYTRLDDSAEKIIHTQGYPMCPDDEVWVADAEGNPLPQGEVGRLMTRGPYTFRGYYKSPQHNASAFDANGFYCSGDLISIDPEGYITVQGREKDQINRGGEKIAAEEIENLLLRHPAVIYAALVSMEDELMGEKSCAYLVVKEPLRAVQVRRFLREQGIAEFKLPDRVECVDSLPLTAVGKVDKKQLRQWLASRASA
Km [1]: 2.9 ± 0.4 µM

From paper PMC2974439 (Biochemistry, 2010)
